# Assay results taken from the Kinase Knowledgebase extract (Sharma et al. 2016).
# Target: EGFR (UniProt P00533)
# Sequence (P00533 whole entry, looked up): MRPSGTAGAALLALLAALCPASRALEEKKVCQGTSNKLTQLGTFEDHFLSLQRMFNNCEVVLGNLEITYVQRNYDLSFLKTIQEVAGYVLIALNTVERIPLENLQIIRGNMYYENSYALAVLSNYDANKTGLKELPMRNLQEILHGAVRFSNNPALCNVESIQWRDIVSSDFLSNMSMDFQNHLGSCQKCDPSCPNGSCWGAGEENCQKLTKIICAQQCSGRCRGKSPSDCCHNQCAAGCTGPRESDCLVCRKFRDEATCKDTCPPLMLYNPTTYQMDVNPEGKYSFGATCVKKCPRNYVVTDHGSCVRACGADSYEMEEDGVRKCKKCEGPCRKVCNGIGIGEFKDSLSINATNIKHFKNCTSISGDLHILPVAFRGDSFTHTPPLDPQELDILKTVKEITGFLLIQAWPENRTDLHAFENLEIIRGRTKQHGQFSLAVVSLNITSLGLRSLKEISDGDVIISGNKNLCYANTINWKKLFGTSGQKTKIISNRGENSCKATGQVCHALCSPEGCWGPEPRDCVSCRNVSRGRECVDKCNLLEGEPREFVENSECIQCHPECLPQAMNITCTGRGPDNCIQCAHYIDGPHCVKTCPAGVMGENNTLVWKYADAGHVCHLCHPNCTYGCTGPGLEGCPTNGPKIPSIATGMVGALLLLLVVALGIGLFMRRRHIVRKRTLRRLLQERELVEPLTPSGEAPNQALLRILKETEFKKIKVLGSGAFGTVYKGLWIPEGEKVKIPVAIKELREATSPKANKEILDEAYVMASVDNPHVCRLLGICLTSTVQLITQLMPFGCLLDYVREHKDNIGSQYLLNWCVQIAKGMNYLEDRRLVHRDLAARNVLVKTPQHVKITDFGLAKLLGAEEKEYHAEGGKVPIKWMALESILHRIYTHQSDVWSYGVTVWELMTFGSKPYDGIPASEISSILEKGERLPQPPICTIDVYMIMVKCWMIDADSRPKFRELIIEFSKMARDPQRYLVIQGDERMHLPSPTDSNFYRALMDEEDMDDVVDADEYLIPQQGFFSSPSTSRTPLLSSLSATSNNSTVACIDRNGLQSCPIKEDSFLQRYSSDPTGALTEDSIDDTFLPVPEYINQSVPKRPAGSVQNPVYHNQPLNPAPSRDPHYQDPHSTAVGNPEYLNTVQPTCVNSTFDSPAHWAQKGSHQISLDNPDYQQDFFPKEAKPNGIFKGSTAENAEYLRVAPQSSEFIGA
row,Structure (SMILES),IC50 [µg/mL]
1,COc1cc(Nc2ncnc(-c3ccc(NCc4ccccc4)nc3)n2)cc(OC)c1OC,> 4.5
2,COc1ccc(Nc2ncnc(N(C)c3ccccc3)n2)cc1OC,< 0.4
3,COc1ccc(Nc2ncnc(N(C)C3CCCCC3)n2)cc1OC,< 0.4
4,COC(=O)Cc1cccc(Nc2ncnc(-n3c(N)nc4ccccc43)n2)c1,2.4 to 3.5
5,Fc1cccc(Nc2ncnc(-c3cccs3)n2)c1,> 4.5
6,COc1cc(Nc2ncnc(Nc3ccc(NCc4ccccc4)cc3)n2)cc(OC)c1OC,> 4.5
7,COC(=O)c1ccc(-c2cc(Nc3ncnc(Nc4cccc(CC(N)=O)c4)n3)[nH]n2)cc1,3.5 to 4.5
8,CCOC(=O)Cc1ccc(Nc2ncnc(Nc3cc(OC)c(OC)c(OC)c3)n2)cc1,< 0.4
9,COc1cc(Nc2ncnc(Nc3cc(F)cc(C(F)(F)F)c3)n2)cc(OC)c1OC,< 0.4
10,COc1cc(Nc2ncnc(-n3cccc3)n2)cc(OC)c1OC,> 4.5
11,C=CCNc1ncccc1-c1ncnc(Nc2ccc(C(N)=O)cc2)n1,> 4.5
12,CCN(CC)CCOc1cc(Nc2ncnc(Nc3cc(OC)c(OC)c(OC)c3)n2)ccc1OC,> 4.5
13,O=c1[nH]c2ccccc2n1-c1ncnc(Nc2cc(Cl)cc(Cl)c2)n1,> 4.5
14,COc1cc(Nc2ncnc(Nc3ccc4[nH]ccc4c3)n2)cc(OC)c1OC,< 0.4
15,COc1cc(Nc2ncnc(N[C@H]3CCCc4ccccc43)n2)cc(OC)c1OC,3.5 to 4.5
16,COc1cc(Nc2ncnc(N(CC(=O)OC(C)(C)C)c3ccc(Cl)cc3)n2)cc(OC)c1OC,0.4 to 2.4
17,COc1cc(C)c(Nc2ncnc(-n3c(N)nc4ccccc43)n2)cc1OC,> 4.5
18,Fc1ccc(Nc2ncnc(-n3cccc3)n2)cc1,> 4.5
19,c1ccc(Cn2ncc3cc(Nc4ncnc(NCCN5CCCC5)n4)ccc32)cc1,> 4.5
20,Cc1nccc(-c2cccc(Nc3ncnc(Nc4ccc5c(cnn5Cc5ccccc5)c4)n3)c2)n1,< 0.4
21,COc1cc(Nc2ncnc(Nc3cccc4ccccc34)n2)cc(OCCN2CCOCC2)c1OC,< 0.4
22,COc1cc(Nc2ncnc(Nc3ncncn3)n2)cc(OC)c1OC,> 4.5

row,Structure (SMILES),IC50 [µg/mL]
1,COc1cc(Nc2ncnc(-c3cc4ccccc4s3)n2)cc(OC)c1OC,> 4.5
2,COC(=O)c1ccc(-c2cc(Nc3ncnc(NCc4cccs4)n3)[nH]n2)cc1,2.4 to 3.5
3,COCCOc1ccc(Nc2ncnc(-c3ccccc3)n2)cc1,> 4.5
4,c1ccc(COc2cccc(Nc3ncnc(-c4cccs4)n3)c2)cc1,> 4.5
5,COc1cc(Nc2ncnc(-n3c(NCc4ccccn4)nc4ccccc43)n2)cc(OC)c1OCCn1ccnn1,> 4.5
6,COc1cc(Nc2ncnc(Nc3ccc(F)c(Cl)c3)n2)cc(OC)c1OC,< 0.4
7,CC(C)(C)OC(=O)NCc1cccc(Nc2ncnc(Nc3cc(-c4ccco4)n[nH]3)n2)c1,0.4 to 2.4
8,COc1cc(Nc2ncnc(Nc3ccc(C(N)=O)cc3)n2)cc(OC)c1OC,> 4.5
9,c1ccc(Cn2ncc3cc(Nc4ncnc(NCc5ccco5)n4)ccc32)cc1,0.4 to 2.4
10,NC(=O)Cc1cccc(Nc2ncnc(-n3c(NCc4ccccc4)nc4ccccc43)n2)c1,< 0.4
11,OCCCNc1ncnc(-c2ccccc2)n1,> 4.5
12,COc1cc(Nc2ncnc(-n3cc(CC(N)=O)c4ccccc43)n2)cc(OC)c1OC,> 4.5
13,COC(=O)c1ccc(N(C)c2ncnc(Nc3ccc(OC)c(OC)c3)n2)cc1,> 4.5
14,CCc1ccc(Nc2nc3ccccc3n2-c2ncnc(Nc3cc(OC)c(OC)c(OC)c3)n2)cc1,< 0.4
15,Cc1cccc(Nc2ncnc(Nc3ccc4[nH]ccc4c3)n2)c1,< 0.4
16,O=c1[nH]c2ccccc2n1-c1ncnc(Nc2ccc3ncccc3c2)n1,3.5 to 4.5
17,Fc1ccc(Nc2ncnc(Cl)n2)cc1Cl,> 4.5
18,CN(c1cccc(Cl)c1)c1ncnc(Nc2ncccn2)n1,< 0.4
19,COc1cc(Br)ccc1Nc1nc2ccccc2n1-c1ncnc(Nc2cc(OC)c(OC)c(OC)c2)n1,> 4.5
20,COc1cc(Nc2ncnc(-n3c(NCc4ccc(F)cc4)nc4ccccc43)n2)cc(OC)c1OC,> 4.5
21,COc1ccc(Nc2ncnc(Nc3cc(-c4ccccc4)n[nH]3)n2)cc1OC,0.4 to 2.4
22,COc1cc(Nc2ncnc(-n3c(NCc4ccccn4)nc4ccccc43)n2)cc(OCCN2CCOCC2)c1OC,> 4.5

row,Structure (SMILES),IC50 [µg/mL]
1,Cc1ccc2c(c1)CCCN2c1ncnc(Nc2cccc(Cl)c2C)n1,2.4 to 3.5
2,CN(c1ccc(F)c(Cl)c1)c1ncnc(Nc2cccc(Br)c2)n1,> 4.5
3,COc1cc(Nc2ncnc(-c3cccnc3N)n2)cc(OC)c1OC,> 4.5
4,COc1cc(OC)nc(Nc2ncnc(-n3c(=O)[nH]c4ccccc43)n2)n1,> 4.5
5,CC(=O)N1CCc2cc(Nc3ncnc(N4CCCc5cc(C)ccc54)n3)ccc21,< 0.4
6,COc1ccc(-c2cc(Nc3ncnc(Nc4cc(OC)c(OC)c(OC)c4)n3)[nH]n2)cc1,0.4 to 2.4
7,COc1cc(Nc2ncnc(NC(=O)Nc3ccccc3)n2)cc(OC)c1OC,> 4.5
8,CCOC(=O)C(Nc1nc2ccccc2n1-c1ncnc(Nc2cc(OC)c(OC)c(OC)c2)n1)c1ccccc1 (configuration not stated),> 4.5
9,COc1cc(Nc2ncnc(Nc3cccc(CN4CCN(C)CC4)c3)n2)cc(OC)c1OC,> 4.5
10,COc1cc(Nc2ncnc(-n3c(N[C@H](CO)c4ccccc4)nc4ccccc43)n2)cc(OC)c1OC,> 4.5
11,COc1cc(Nc2ncnc(-n3c(NCc4ccc(C(F)(F)F)cc4)nc4ccccc43)n2)cc(OC)c1OC,> 4.5
12,COc1cc(Nc2ncnc(Nc3[nH]ncc3-c3ccccc3)n2)cc(OC)c1OC,> 4.5
13,COc1cc(Nc2ncnc(Nc3cccc(Oc4ccccc4)c3)n2)cc(OC)c1OC,0.4 to 2.4
14,COc1ccc(Nc2ncnc(Nc3cc(OC)c(OC)c(OC)c3)n2)cc1OC,3.5 to 4.5
15,CC[C@H]1CN(c2ccc(-c3ncnc(Nc4cc(OC)c(OC)c(OC)c4)n3)cn2)CCN1,> 4.5
16,CN(c1cccc(Cl)c1)c1ncnc(N[C@@H]2CCN(Cc3ccccc3)C2)n1,> 4.5
17,COc1cc(Nc2ncnc(-c3cccnc3)n2)cc(OC)c1OC,> 4.5
18,COc1cc(Nc2ncnc(-c3cccnc3Nc3cc(Cl)cc(Cl)c3)n2)cc(OC)c1OC,> 4.5
19,COc1cc(Nc2ncnc(-c3ccc(F)cc3)n2)cc(OC)c1OC,> 4.5
20,COc1cc(Nc2ncnc(Nc3ccc(N)cc3)n2)cc(OC)c1OC,0.4 to 2.4
21,COc1cc(Nc2ncnc(-n3c(Nc4ccccc4C(N)=O)nc4ccccc43)n2)cc(OC)c1OC,> 4.5
22,CC(=O)Nc1ccc(Nc2ncnc(-n3c(N)nc4ccccc43)n2)cc1,> 4.5

row,Structure (SMILES),IC50 [µg/mL]
1,COc1cc(Nc2ncnc(-n3c(NCc4ccccc4Cl)nc4ccccc43)n2)cc(OC)c1OC,> 4.5
2,CCc1cccc(Nc2ncnc(-n3c(N)nc4ccccc43)n2)c1,0.4 to 2.4
3,COc1cc(Nc2ncnc(-n3c(Cl)nc4ccccc43)n2)cc(OC)c1OC,> 4.5
4,COc1cc(Nc2ncnc(Nc3cccc(C)c3)n2)cc(OC)c1OC,< 0.4
5,COc1cc(Nc2ncnc(-n3c(Nc4ccc5cn[nH]c5c4)nc4ccccc43)n2)cc(OC)c1OC,> 4.5
6,c1ccc(-c2cc(Nc3ncnc(Nc4ccc5[nH]ncc5c4)n3)[nH]n2)cc1,0.4 to 2.4
7,NC(=O)c1ccc(Nc2ncnc(-c3cccnc3NCc3ccccc3)n2)cc1,0.4 to 2.4
8,COc1cc(Nc2ncnc(Nc3ccc(N(C)C(C)=O)cc3)n2)cc(OC)c1OC,> 4.5
9,CC(=O)NS(=O)(=O)c1ccc(Nc2ncnc(-n3c(=O)[nH]c4ccccc43)n2)cc1,> 4.5
10,COc1cc(Nc2ncnc(Nc3ccc4c(c3)CCC4)n2)cc(OC)c1OC,0.4 to 2.4
11,COc1cc(Nc2ncnc(N(Cc3ccccc3)c3nc4ccccc4[nH]3)n2)cc(OC)c1OC,2.4 to 3.5
12,Nc1nc2ccccc2n1-c1ncnc(Nc2cccc(CC(=O)NCc3ccccn3)c2)n1,> 4.5
13,COc1cc(Nc2ncnc(-c3c(O)[nH]c4ccc(Cl)cc34)n2)cc(OC)c1OC,2.4 to 3.5
14,COc1cc(Nc2ncnc(-c3cccnc3NCc3ccc(F)cc3)n2)cc(OC)c1OC,> 4.5
15,COc1cccc(Nc2ncnc(-c3cccs3)n2)n1,> 4.5
16,COc1cc(Nc2ncnc(Nc3cc(-c4ccc(C)cc4)n[nH]3)n2)cc(OC)c1OC,0.4 to 2.4
17,COc1cc(Nc2ncnc(-n3c(Nc4ccc(C#N)cc4)nc4ccccc43)n2)cc(OC)c1OC,> 4.5
18,COc1cc(Nc2ncnc(Nc3cc(OC)c(OC)c(OC)c3)n2)ccc1OCCN1CCOCC1,0.4 to 2.4
19,COc1ccc(Nc2ncnc(NC[C@@H]3CCCO3)n2)cc1OC,> 4.5
20,COc1cc(Nc2ncnc(-c3cccnc3NCc3ccccc3OC(F)(F)F)n2)cc(OC)c1OC,> 4.5
21,c1ccc(-c2cc(Nc3ncnc(Nc4cccc(-c5cnco5)c4)n3)[nH]n2)cc1,0.4 to 2.4
22,COc1cc(Nc2ncnc(-c3cccnc3NCc3ccccc3F)n2)cc(OC)c1OC,> 4.5

row,Structure (SMILES),IC50 [µg/mL]
1,COc1cc(Nc2ncnc(-c3ccnc(N4CCCCC4)c3)n2)cc(OC)c1OC,> 4.5
2,O=c1[nH]c2ccccc2n1-c1ncnc(Nc2cnc3ccccc3c2)n1,> 4.5
3,Nc1ncnc(Nc2nc(-c3ccccc3)cs2)n1,> 4.5
4,COc1cc(Nc2ncnc(Nc3ccc(O)cc3)n2)cc(OC)c1OC,0.4 to 2.4
5,COc1cc(Nc2ncnc(-n3c(Nc4ccc(F)cc4)nc4ccccc43)n2)cc(OC)c1OC,> 4.5
6,O=c1[nH]c2ccccc2n1-c1ncnc(Nc2ccccn2)n1,> 4.5
7,COc1cc(Nc2ncnc(N(CC(=O)OC(C)(C)C)c3ccc4c(c3)OCO4)n2)cc(OC)c1OC,2.4 to 3.5
8,COc1cc(Nc2ncnc(-c3cccnc3Cl)n2)cc(OC)c1OC,> 4.5
9,FC(F)C(F)(F)Oc1cccc(Nc2ncnc(-c3cccs3)n2)c1,> 4.5
10,COc1cc(Nc2ncnc(-c3cccnc3Nc3ccc(Oc4ccccc4)cc3)n2)cc(OC)c1OC,> 4.5
11,COc1cc(Nc2ncnc(-n3c(NCc4cccc(Cl)c4)nc4ccccc43)n2)cc(OC)c1OC,> 4.5
12,COc1ccc(Nc2ncnc(Nc3ccc(F)c(F)c3)n2)cc1OC,0.4 to 2.4
13,COc1cc(Nc2ncnc(-n3cnc4ccccc43)n2)cc(OC)c1OC,3.5 to 4.5
14,COc1ccc(Nc2ncnc(-c3cccs3)n2)cc1OC,> 4.5
15,COc1cc(Nc2ncnc(-c3ccccc3)n2)cc(OC)c1,> 4.5
16,COc1cc(C)c(Nc2ncnc(Nc3cc(-c4ccco4)n[nH]3)n2)cc1OC,0.4 to 2.4
17,COc1cc(Nc2ncnc(Nc3ccc(-c4ccccc4)cc3)n2)cc(OC)c1OC,3.5 to 4.5
18,COC(=O)c1ccc(-c2cc(Nc3ncnc(NCc4ccccc4OC)n3)[nH]n2)cc1,> 4.5
19,COc1cc(Nc2ncnc(N3CCCC3)n2)cc(OC)c1OC,> 4.5
